# Measured values published in patent publication US20240391862A1, “(1,4,5-TRISUBSTITUTED-1H-PYRAZOL-3-YL)OXY-2-ALKOXY ALKYL ACIDS AND THEIR DERIVATIVES, THEIR SALTS AND THEIR USE AS HERBICIDAL AGENTS” (Bayer AKtiengesellschaft, priority 2021, published 2024).
# Legend:
# ZEAMX [1] = assay: Post-emergence herbicidal effect and crop plant compatibility, greenhouse pot test; assay type: in vivo, Zea mays; conditions: one-leaf stage, rated visually after about 3 weeks vs untreated controls; for plant injury at 80 g/ha: Zea mays, 504 h, read-out: Post-emergence effect at 80 g/ha against ZEAMX in %
# Procedure, shortened: (§1)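 Greenhouse pot test: weeds and crops sown in sandy loam, sprayed post-emergence at one-leaf stage (2–3 weeks after sowing) with WP or EC formulations plus 0.5% additive at 600 l/ha water, rates 20–320 g/ha. Visual rating about 3 weeks later versus untreated controls (100% = dead, 0% = as control).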
# VERPE = assay: Post-emergence herbicidal effect, greenhouse pot test; assay type: in vivo, Veronica persica; conditions: Veronica persica, 504 h, 320 g/ha, read-out: Post-emergence effect against VERPE in %
# Procedure, shortened: as §1
# ORYSA [2] = assay: Pre-emergence herbicidal effect and crop plant compatibility, greenhouse pot test; assay type: in vivo, Oryza sativa; conditions: scored visually after about 3 weeks vs untreated controls
# Source text: (§2) Seeds of monocotyledonous and dicotyledonous weed plants and crop plants are placed in plastic or organic planting pots and covered with soil. The compounds of the invention, formulated in the form of wettable powders (WP) or as emulsion concentrates (EC), are then applied to the surface of the covering soil as aqueous suspension or emulsion with addition of 0.5% additive at a water application rate equivalent to 600 l/ha. After the treatment, the pots are placed in a greenhouse and kept under good growth conditions for the trial plants. After about 3 weeks, the effect of the preparations is scored visually in comparison with untreated controls as percentages. For example, 100% activity=the plants have died, 0% activity=like control plants.
# (§3) Tables 1a to 19c below show the effects/crop compatibilities of selected compounds of the general formula (I) on various harmful plants at an application rate corresponding to 20 to 320 g/ha, which were obtained by the trial procedure specified above.
# (§4) • ALOMY: Alopecurus myosuroides SETVI: Setaria viridis • AVEFA: Avena fatua POLCO: Fallopia convolvulus • AMARE: Amaranthus retroflexus ECHCG: Echinochloa crus-galli • LOLRJ: Lolium rigidum STEME: Stellaria media • VERPE: Veronica persica MATIN: Tripleurospermum inodorum • DIGSA: Digitaria sanguinalis ABUTH: Abutylon threophrasti • TRZAS: Triticum aestivum VIOTR: Viola tricolor • BRSNW: Brassica napus ZEAMX: Zea mays • PHBPU: Ipomoea purpurea GLXMA: Glycine max • ORYSA: Oryza sativa HORMU: Hordeum murinum
# GLXMA [3] = assay: as above; assay type: in vivo, Glycine max; conditions: scored visually after about 3 weeks vs untreated controls
# Source text: as §2, §3, §4
# ORYSA [4] = assay: Post-emergence herbicidal effect and crop plant compatibility, greenhouse pot test; assay type: in vivo, Oryza sativa; conditions: for Post-emergence effect at 320 g/ha against ORYSA in %: one-leaf stage, rated visually after about 3 weeks vs untreated controls
# Source text: as §4
# (§5) Seeds of monocotyledonous and dicotyledonous weeds and crop plants are placed in sandy loam in plastic or organic planting pots, covered with soil and cultivated in a greenhouse under controlled growth conditions. 2 to 3 weeks after sowing, the trial plants are treated at the one-leaf stage. The compounds of the invention, formulated in the form of wettable powders (WP) or as emulsion concentrates (EC), are then sprayed onto the green parts of the plants as aqueous suspension or emulsion with addition of 0.5% additive at a water application rate of 600 l/ha (converted). After the test plants have been kept in the greenhouse under optimum growth conditions for about 3 weeks, the activity of the preparations is rated visually in comparison to untreated controls. For example, 100% activity=the plants have died, 0% activity=like control plants.
# (§6) Tables 20a to 38c below show the effects/crop compatibilities of selected compounds of the general formula (I) on various harmful plants at an application rate corresponding to 20 to 320 g/ha, which were obtained by the trial procedure specified above.
# AMARE = assay: Pre-emergence herbicidal effect, greenhouse pot test; assay type: in vivo, Amaranthus retroflexus; conditions: Amaranthus retroflexus, 504 h, 320 g/ha, scored visually after about 3 weeks vs untreated controls, read-out: Pre-emergence effect at 320 g/ha against AMARE in %
# Source text: as §2, §3, §4
# ECHCG = assay: Post-emergence herbicidal effect, greenhouse pot test; assay type: in vivo, Echinochloa crus-galli; conditions: Echinochloa crus-galli, 504 h, 320 g/ha, read-out: Post-emergence effect against ECHCG in %
# Procedure, shortened: as §1
# TRZAS [5] = assay: Pre-emergence herbicidal effect and crop plant compatibility, greenhouse pot test; assay type: in vivo, Triticum aestivum; conditions: scored visually after about 3 weeks vs untreated controls
# Source text: as §2, §3, §4
# SETVI [6] = assay: Post-emergence herbicidal effect, greenhouse pot test; assay type: in vivo, Setaria viridis; conditions: Setaria viridis, 504 h, 320 g/ha, read-out: Post-emergence effect against SETVI in %
# Procedure, shortened: as §1
# ZEAMX [7] = assay: Pre-emergence herbicidal effect and crop plant compatibility, greenhouse pot test; assay type: in vivo, Zea mays; conditions: scored visually after about 3 weeks vs untreated controls
# Source text: as §2, §3, §4
# BRSNW = assay: as above; assay type: in vivo, Brassica napus; conditions: scored visually after about 3 weeks vs untreated controls
# Source text: as §2, §3, §4
# SETVI [8] = assay: Pre-emergence herbicidal effect, greenhouse pot test; assay type: in vivo, Setaria viridis; conditions: Setaria viridis, 504 h, 320 g/ha, scored visually after about 3 weeks vs untreated controls, read-out: Pre-emergence effect at 320 g/ha against SETVI in %
# Source text: as §2, §3, §4
# GLXMA [9] = assay: Post-emergence herbicidal effect and crop plant compatibility, greenhouse pot test; assay type: in vivo, Glycine max; conditions: 80 g/ha, visual rating about 3 weeks after treatment, crop plant
# Source text: as §4, §5, §6
# TRZAS [10] = assay: as above; assay type: in vivo, Triticum aestivum; conditions: visual rating about 3 weeks after treatment, crop plant
# Procedure, shortened: as §1
SMILES,plant injury at 80 g/ha (ZEAMX [1]; 80 g/ha) [%],Pre-emergence effect at 80 g/ha against ORYSA in % (ORYSA [2]) [%],Pre-emergence effect at 80 g/ha against GLXMA in % (GLXMA [3]) [%],Post-emergence effect at 320 g/ha against ORYSA in % (ORYSA [4]) [%],Pre-emergence effect at 320 g/ha against TRZAS in % (TRZAS [5]) [%],Pre-emergence effect at 80 g/ha against ZEAMX in % (ZEAMX [7]) [%],Pre-emergence effect at 80 g/ha against BRSNW in % (BRSNW) [%],Pre-emergence effect at 320 g/ha against GLXMA in % (GLXMA [3]) [%],other results
COC(=O)C(OC)Oc1nn(-c2ncccc2F)c(-c2ccc(Cl)cc2)c1Br (centres unmarked) [Example I-03],20,0,20,10,0,20,20,–,pest or weed control at 320 g/ha (VERPE): 90%; pest or weed control at 320 g/ha (AMARE): 80%; pest or weed control at 320 g/ha (ECHCG): 80%; pest or weed control at 320 g/ha (SETVI [6]): 80%; Pre-emergence effect at 320 g/ha against ZEAMX in % (ZEAMX [7]; 320 g/ha): 20%
CCOC(=O)C(OCC)Oc1nn(-c2ncccc2F)c(-c2ccc(Cl)cc2)c1Br (centres unmarked) [Example I-02],10,0,0,10,–,–,0,0,pest or weed control at 320 g/ha (SETVI [8]): 80%; Pre-emergence effect at 320 g/ha against ORYSA in % (ORYSA [2]; 320 g/ha): 0%; Pre-emergence effect at 320 g/ha against BRSNW in % (BRSNW; 320 g/ha): 0%
COC(=O)C(OC)Oc1nn(-c2ccc(Cl)cc2F)c(-c2ccc(F)cc2F)c1Br (centres unmarked) [Example I-11],–,–,0,–,0,0,–,0,"Post-emergence effect against GLXMA (GLXMA [9]): 20%; Post-emergence effect at 80 g/ha against ZEAMX in % (ZEAMX [1]; 80 g/ha): 0%; Post-emergence effect at 320 g/ha against ZEAMX in % (ZEAMX [1]; 320 g/ha): 0%; Post-emergence effect against ORYSA (ORYSA [4]; 80 g/ha, visual rating about 3 weeks after treatment, crop plant): 0%; Pre-emergence effect at 80 g/ha against TRZAS in % (TRZAS [5]; 80 g/ha): 0%; Post-emergence effect against TRZAS (TRZAS [10]; 80 g/ha): 0%; Post-emergence effect against TRZAS (TRZAS [10]; 320 g/ha): 0%"
